“Also recorded” adds a separate entry of the source. Structures can show the parent of a compound that is named as a salt.
How the values were obtained:
[1] = test system: mouse partial sciatic nerve ligation model (neuropathic pain); assay: Mouse partial sciatic nerve ligation model (Seltzer model), von Frey test; format: in vivo; details: Comparative Example 7: oral, 7 days after ligation, 1-3 h after dosing; 0.01-1 mg/kg (Comp Ex 1), 10 mg/kg (Comp Ex 3-6, pregabalin); vs ligation+distilled water; t-test corrected by Dunnett
[2] = test system: mouse partial sciatic nerve ligation model (neuropathic pain); assay: as above; format: in vivo; details: oral administration, von Frey test at 1, 2, 3 h
Procedure: The mouse partial sciatic nerve ligation model was prepared in accordance with the method of Seltzer et al. (Malmberg et al., Pain, vol. 76, p. 215-222, 1998).
Slc: ICR mice (5 weeks old, male; from Japan SLC, Inc.) or Cr1: CD1 (ICR) mice (5 weeks old, male; from CHARLES RIVER LABORATORIES JAPAN, INC.) were anesthetized with sodium pentobarbital (70 mg/kg, intraperitoneal administration). The sciatic nerve at the femoral region of the right hind paw of each mouse was exposed and triply ligated tightly with silk suture of 8-0 (from NATSUME SEISAKUSHO CO., LTD.) under a stereomicroscope so that only half thickness of the nerve was trapped in the ligature. A group of mice thus treated was designated as a partial sciatic nerve ligation group. A group of mice whose sciatic nerve was just exposed and not ligated was designated as a sham surgery group.
Evaluation of neuropathic pain (hereinafter referred to as von Frey test) was performed as follows. Mice were conditioned for at least one hour in an acrylic cage for measurement (from NATSUME SEISAKUSHO CO. LTD. or SHINANO SEISAKUSHO) placed on a wire net. Thereafter, using a filament (from North Coast Medical or neuroscience) which exerted a pressure of 0.16 g, the mice were subjected to mechanical tactile stimulus by applying the filament to the plantar surface of the right hind paw 3 times, each for 3 seconds, with an interval of 3 seconds.
Seven days after the sciatic nerve ligation surgery, the compound of Example 1, 2, 3, 4, 5, 7, 8, 9, 10, 11, 12 or 13 (10 mg/kg for each of the compounds of Example 1, 2, 3, 4, 5, 8, 10 and 13, 0.01 to 1 mg/kg for the compound of Example 7, 0.01 to 10 mg/kg for the compound of Example 9; 0.001 to 0.1 mg/kg for the compound of Example 11; and 0.01 to 1 mg/kg for the compound of Example 12) or pregabalin as a positive control (10 mg/kg; Bosche Scientific) was dissolved in distilled water and orally administered to mice of the partial sciatic nerve ligation group. The groups of the mice in the partial sciatic nerve ligation mouse to which the compound of Example 1, 2, 3, 4, 5, 7, 8, 9, 10, 11, 12 or 13 was administered were designated as a “partial sciatic nerve ligation+the compound of Example 1” group; a “partial sciatic nerve ligation+the compound of Example 2” group; a “partial sciatic nerve ligation+the compound of Example 3” group; a “partial sciatic nerve ligation+the compound of Example 4” group; a “partial sciatic nerve ligation+the compound of Example 5” group; a “partial sciatic nerve ligation+the compound of Example 7” group; a “partial sciatic nerve ligation+the compound of Example 8” group; a “partial sciatic nerve ligation+the compound of Example 9” group; a “partial sciatic nerve ligation+the compound of Example 10” group; a “partial sciatic nerve ligation+the compound of Example 11” group; a “partial sciatic nerve ligation+the compound of Example 12” group; and a “partial sciatic nerve ligation+the compound of Example 13” group, respectively. The partial sciatic nerve ligation mouse group to which pregabalin was administered was designated as a “partial sciatic nerve ligation+pregabalin” group. A group wherein distilled water was orally administered to the mice of the partial sciatic nerve ligation group was designated as a “partial sciatic nerve ligation+distilled water” group. A group wherein distilled water was orally administered to the mice of the sham surgery group was designated as a “sham surgery+distilled water” group.
The von Frey test was carried out before oral administration of a test compound (pre-value), one hour, two hours, and three hours after the oral administration of a test compound.
Slc: ICR mice (5 weeks old, male; Japan SLC, Inc.) were anesthetized with sodium pentobarbital (70 mg/kg, intraperitoneal administration).

[3] = test system: Canine aortic smooth muscle cells; assay: Inducibility of cytoplasmic vacuolation in canine aortic smooth muscle cells; format: cell-based; set-up: key: Present: The term “present” in the tables means that cytoplasmic vacuolation was observed; Absent: the term “absent” means that cytoplasmic vacuolation was not observed; details: Concentration: 1.0 mmol/L, Treatment time: 24 hours
Procedure: (§1) As a test compound, the compound of Example 3, 9, 11, 12 or compounds of Comparative Examples 2 to 6 were used. Canine aortic smooth muscle cells (Canine Aortic Smooth Muscle Cells, supply source: Toyobo Co., Ltd.) or human aortic smooth muscle cells of (T/G HA-VSMG, supply source: ATCC) were treated with a test compound (1.0 or 1.2 mmol/L in concentration) for 24 hours or 2 weeks. The cells were stained with HE, immunohistochemically for LAMP-2 or toluidine blue, and thereafter the presence or absence of cytoplasmic vacuolation was determined by using an optical microscope.

[4] = test system: Cr1: CD (SD) rats; assay: Evaluation of safety in rat, two-week oral administration test; format: in vivo; details: for findings in examination items: in vivo, po
Procedure: As a test compound, the compound of Example 11 or Comparative Example 2 was used. The compound of Example 11 or Comparative Example 2 was administered orally to Cr1: CD (SD) rats (7 weeks old, female and male; from Charles River Laboratories, Inc.), for 2 weeks. Clinical observation, body weight measurement, food intake measurement, ophthalmologic examination (the compound of Example 11, alone), hematological examination, blood chemistry examination, urinalysis, bone marrow examination, pathological anatomical examination, organ weight measurement, histopathological examination and immunotoxicity test were carried out. In addition, toxicokinetics (TK) measurement was carried out on Day 1 and Day 14 after administration. It was confirmed that each test compound was exposed. The administration dose of a test compound was specified as 0, 250, 500, 1000 mg/kg/day and administration volume was specified as 10 mL/kg. As an administration solvent, phosphate-buffered saline was used for the compound of Example 11 and distilled water was used for the compound of Comparative Example 2.

[5] = test system: human aortic smooth muscle cells (T/G HA-VSMG); assay: Inducibility of cytoplasmic vacuolation in human aortic smooth muscle cells; format: cell-based; details: Concentration: 1.0 mmol/L, Treatment time: 24 hours, sulfate monohydrate
Procedure: as §1

[6] = Pharmacokinetics (PK) test in cynomolgus monkeys; format: in vivo, cynomolgus monkey; details: male, plasma, cynomolgus monkey
Procedure: Cynomolgus monkeys (4 to 6 years old, male) were raised under the conditions of voluntary intake of solid food (Oriental Yeast Co., Ltd) and tap water and fasted from the evening of the day before initiation of administration and subjected to an experiment. Note that blood was sampled at 4 hours after administration (on and after 16:00), and thereafter feeding was restarted.
Dosing solution for intravenous administration was injected through the saphenous vein by use of a syringe needle (attached to a syringe barrel). The oral administration into the stomach was compulsively carried out by inserting a catheter into the nasal cavity.
The blood sampled was centrifuged at 4° C. and 1800×g for 15 minutes to obtain the plasma. The plasma thus obtained was stored at about −80° C. until use in preparation of analysis samples. The plasma obtained from a cynomolgus monkey to which a test compound was administrated, is referred to as a plasma sample; whereas the plasma obtained from a cynomolgus monkey to which a test compound was not administered, is referred to as the blank plasma.
(§2) The resulting solution was vortexed and cooled at 4° C. for 10 minutes. A sample for a calibration curve was prepared by adding a standard solution for a calibration curve to the blank plasma and subjecting the resulting mixture to the same treatment. After cooling, each of the samples was spun at 4° C. and 2000 rpm for 10 minutes by a centrifuge (Hitachi Koki Co., Ltd.). The resulting supernatant was used as a sample for LC/MS/MS analysis.
as §2, with “diluted 10 fold with 70 vol % acetonitrile containing 0.1 vol % formic acid and subjected” for “used”, “analysis. The LC/MS/MS analysis conditions were as follows:” for “analysis.”
The test-compound concentrations in the plasma at each sampling time point in the case of intravenous administration or oral administration were calculated and PK analysis was carried out for individual monkeys. PK parameters were calculated by using WinNonlin (Pharsight), in accordance with an analysis independent of a model (intravenous administration: Bolus IV Administration, oral administration: Extravascular Administration; Weight=1/y in both administrations). Furthermore, bioavailability (BA) was calculated based on the following Expression (3) by dividing AUC0-∞iv (time 0 to ∞) at the time of the intravenous administration and AUC0-∞po (time 0 to ∞) at the time of the oral administration by respective dose values to obtained as normalized values. Bioavailability (BA)=(AUC0-∞,po/dose)/(AUC0-∞,iv/dose) (3)

Inducibility of cytoplasmic vacuolation [3] | Compound | analgesic action in von Frey test (total score) [1] | persistence of analgesic action [2] | time of strongest analgesic action after oral administration [2] | findings in examination items ([4]; 250 mg/kg/day) | findings in examination items ([4]; 500 mg/kg/day) | no observed adverse effect level ([4]; oral, 2 weeks) [mg/kg/day] | Inducibility of cytoplasmic vacuolation [5] | bioavailability ([6]; 1 mg/kg oral vs 1 mg/kg intravenous, read-out: BA (bioavailability)) [%] | clearance ([6]; intravenous administration 1 mg/kg, single, read-out: CLtot (total body clearance) (converted)) [mL/min/kg] | AUC(0-inf) ([6]; oral administration 1 mg/kg, single) [ng·h/mL] | Cmax ([6]; oral administration 1 mg/kg, single, read-out: Cmax (maximum plasma concentration)) [ng/mL] | half-life ([6]; oral administration 1 mg/kg, single, read-out: t1/2 (elimination half-life in the plasma) (converted)) [h]
Present | CCCn1ccnc1CCC(=O)N1CCC(N(C)C)CC1 [Comparative Example 4, 1-(4-(dimethylamino)piperidin-1-yl)-3-(1-propyl-1H-imidazol-2-yl)propan-1-one hydrochloride] | statistically significant analgesic action | tended to decrease 2 hours and 3 hours later | one |  |  |  |  |  |  |  |  | 
Present | CCn1ccnc1CCC(=O)N1CCC(N(C)C)CC1 [Comparative Example 3, 1-(4-(dimethylamino)piperidin-1-yl)-3-(1-ethyl-1H-imidazol-2-yl)propan-1-one hydrochloride] | statistically significant analgesic action | tended to decrease 2 hours and 3 hours later | one |  |  |  |  |  |  |  |  | 
Present | CCCCn1ccnc1CCC(=O)N1CCC(N(C)C)CC1 [Comparative Example 5, 1-(4-(dimethylamino)piperidin-1-yl)-3-(1-butyl-1H-imidazol-2-yl)propan-1-one hydrochloride] | statistically significant analgesic action | tended to decrease 2 hours and 3 hours later | one |  |  |  |  |  |  |  |  | 

Compound | Inducibility of cytoplasmic vacuolation [3] | analgesic action in von Frey test (total score) [1] | persistence of analgesic action [2] | time of strongest analgesic action after oral administration [2] | findings in examination items ([4]; 250 mg/kg/day) | findings in examination items ([4]; 500 mg/kg/day) | no observed adverse effect level ([4]; oral, 2 weeks) [mg/kg/day] | Inducibility of cytoplasmic vacuolation [5] | bioavailability ([6]; 1 mg/kg oral vs 1 mg/kg intravenous, read-out: BA (bioavailability)) [%] | clearance ([6]; intravenous administration 1 mg/kg, single, read-out: CLtot (total body clearance) (converted)) [mL/min/kg] | AUC(0-inf) ([6]; oral administration 1 mg/kg, single) [ng·h/mL] | Cmax ([6]; oral administration 1 mg/kg, single, read-out: Cmax (maximum plasma concentration)) [ng/mL] | half-life ([6]; oral administration 1 mg/kg, single, read-out: t1/2 (elimination half-life in the plasma) (converted)) [h]
CN(C)C1CCN(C(=O)CCc2nccn2C)CC1 [Comparative Example 2, 1-(4-(dimethylamino)piperidin-1-yl)-3-(1-methyl-1H-imidazol-2-yl)propan-1-one sulfate monohydrate] | Present |  |  |  | abnormality was not observed | vacuolation was observed in e.g., the media of blood vessels of submandibular gland | 250 | has the inducibility of cytoplasmic vacuolation; also recorded: Present | 42.6 | 8.35 | 849 | 146 | 6.56

Source: patent US10173999B2, “Cyclic amine derivative and pharmaceutical use thereof” (Toray Industries, Inc., priority 2015, dated 2019)
